Tests used:
[1] = Caco-2 Permeability Assay; assay type: in vitro ADME; conditions: human, Caco-2, test compound 3 μM
Outline: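 Bidirectional permeability measured over 2 h at 37° C, compound dosed at 3 μM in the donor compartment (apical for absorptive, basolateral for secretive) with plain buffer as receiver.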

[2] = test system: Human whole blood stimulated with a TLR2 agonist (lipoteichoic acid), IL-6 levels; assay: IRAK4 Whole Blood Assay; assay type: cell-based; conditions: Homo sapiens, lipoteichoic acid 10 μg/mL
Outline: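 IL-6 was quantified by cytometric bead assay in supernatants of human blood (ACD-A) stimulated for 5 h with lipoteichoic acid at 10 μg/mL final. Compound exposure preceded stimulation for 60 min at 37 °C, 5% CO2.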

IRAK4 = IRAK4 (Homo sapiens (Human), UniProt Q9NWZ3); assay: IRAK4 Inhibition Assay; assay type: biochemical; conditions: ATP 500 μM; IRAK4 0.6 nM
Outline: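 Mobility-shift kinase assay: 0.6 nM IRAK4, 500 μM ATP, 1.5 μM fluorescent peptide, 60 min, room temperature. Percent inhibition was normalised between enzyme-free and DMSO-only wells.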

Sequence of IRAK4 (Q9NWZ3 whole entry, species assumed): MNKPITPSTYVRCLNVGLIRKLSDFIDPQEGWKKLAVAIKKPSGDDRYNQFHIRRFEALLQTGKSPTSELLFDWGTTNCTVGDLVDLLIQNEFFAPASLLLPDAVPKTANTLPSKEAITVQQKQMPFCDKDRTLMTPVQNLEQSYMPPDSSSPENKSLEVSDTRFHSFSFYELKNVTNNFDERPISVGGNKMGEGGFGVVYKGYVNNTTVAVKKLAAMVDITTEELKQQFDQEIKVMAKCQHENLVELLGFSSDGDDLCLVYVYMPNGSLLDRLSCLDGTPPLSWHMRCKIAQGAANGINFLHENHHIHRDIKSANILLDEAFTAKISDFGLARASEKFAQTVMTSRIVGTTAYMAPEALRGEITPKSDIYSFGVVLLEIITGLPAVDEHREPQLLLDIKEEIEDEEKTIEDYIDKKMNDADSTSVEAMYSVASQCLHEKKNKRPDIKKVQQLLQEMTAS

Row | Papp at 2 h, 3 µM [1] [×10⁻⁶ cm/s] | EC50 [2] [nM] | IC50 (IRAK4) [nM] | Compound
1 | 27.8 | 320 | 4 | CC(C)Nc1cc(-n2ncc3cc(C#N)cnc32)ncc1-c1cn(CCC(F)(F)F)nn1 [Example 41, 1-(4-(isopropylamino)-5-(1-(3,3,3-trifluoropropyl)-1H-1,2,3-triazol-4-yl)pyridin-2-yl)-1H-pyrazolo[3,4-b]pyridine-5-carbonitrile]
2 | 30 | 920 | 4 | CC(C)Nc1cc(-n2ncc3cc(C#N)cnc32)ncc1-c1cn(CCCCF)nn1 [Example 48, 1-(5-(1-(4-fluorobutyl)-1H-1,2,3-triazol-4-yl)-4-(isopropylamino)pyridin-2-yl)-1H-pyrazolo[3,4-b]pyridine-5-carbonitrile]
3 | 28.8 | 580 | 4 | CCCn1cc(-c2cnc(-n3ncc4cc(C#N)cnc43)cc2NC2CCOCC2)nn1 [Example 49, 1-(5-(1-propyl-1H-1,2,3-triazol-4-yl)-4-((tetrahydro-2H-pyran-4-yl)amino)pyridin-2-yl)-1H-pyrazolo[3,4-b]pyridine-5-carbonitrile]
4 | 3.4 | 430 | 3 | CCCn1cc(-c2cnc(-n3ncc4cc(C#N)cnc43)cc2N[C@@H](C)CO)nn1 [Example 52, (S)-1-(4-((1-hydroxypropan-2-yl)amino)-5-(1-propyl-1H-1,2,3-triazol-4-yl)pyridin-2-yl)-1H-pyrazolo[3,4-b]pyridine-5-carbonitrile]
5 | 26.7 | 100 | 2 | CCCn1cc(-c2cnc(-n3cnc4cc(C#N)cnc43)cc2N[C@@H](C)CO)nn1 [Example 53, (S)-3-(4-((1-hydroxypropan-2-yl)amino)-5-(1-propyl-1H-1,2,3-triazol-4-yl)pyridin-2-yl)-3H-imidazo [4,5-b]pyridine-6-carbonitrile]
6 | 40.8 | 1180 | 9 | CCCn1cc(-c2cnc(-n3ncc4cc(C#N)cnc43)cc2NCC)nn1 [Example 54, 1-(4-(ethylamino)-5-(1-propyl-1H-1,2,3-triazol-4-yl)pyridin-2-yl)-1H-pyrazolo[3,4-b]pyridine-5-carbonitrile]
7 | 7.2 | 180 | 3 | CC(C)Nc1cc(-n2ncc3cc(C#N)cnc32)ncc1-c1cn(CCc2ccccc2)nn1 [Example 56, 1-(4-(isopropylamino)-5-(1-phenethyl-1H-1,2,3-triazol-4-yl)pyridin-2-yl)-1H-pyrazolo [3,4-b]pyridine-5-carbonitrile]
8 | 11.9 | 250 | 2 | CCCn1cc(-c2cnc(-n3ncc4cc(C#N)cnc43)cc2Nc2cnn(CC(F)F)c2)nn1 [Example 60, 1-(4-((1-(2,2-difluoroethyl)-1H-pyrazol-4-yl)amino)-5-(1-propyl-1H-1,2,3-triazol-4-yl)pyridin-2-yl)-1H-pyrazolo[3,4-b]pyridine-5-carbonitrile]
9 | 32.1 | 140 | 4 | CCCn1cc(-c2cnc(-n3cnc4cnc(N)nc43)cc2NC(C)C)nn1 [Example 62, 9-(4-(isopropylamino)-5-(1-propyl-1H-1,2,3-triazol-4-yl)pyridin-2-yl)-9H-purin-2-amine]
10 | 7.8 | 900 | 14 | CC(C)Nc1cc(-n2ncc3cc(C#N)cnc32)ncc1-c1cn(CC(C)(C)O)nn1 [Example 63, 1-(5-(1-(2-hydroxy-2-methylpropyl)-1H-1,2,3-triazol-4-yl)-4-(isopropylamino)pyridin-2-yl)-1H-pyrazolo[3,4-b]pyridine-5-carbonitrile]
11 | 6.9 | 310 | 5 | CC(C)Nc1cc(-n2ncc3cc(C#N)cnc32)ncc1-c1cn(C[C@H](O)c2ccccc2)nn1 [Example 85, (R)-1-(5-(1-(2-hydroxy-2-phenylethyl)-1H-1,2,3-triazol-4-yl)-4-(isopropylamino)pyridin-2-yl)-1H-pyrazolo[3,4-b]pyridine-5-carbonitrile]
12 | < 1.5 | 1440 | 8 | CC(C)Nc1cc(-n2ncc3cc(C#N)c(N)nc32)ncc1-c1cn(CC(C)(C)O)nn1 [Example 97, 6-amino-1-(5-(1-(2-hydroxy-2-methylpropyl)-1H-1,2,3-triazol-4-yl)-4-(isopropylamino)pyridin-2-yl)-1H-pyrazolo[3,4-b]pyridine-5-carbonitrile]
13 | < 1.5 | 1110 | 4 | Cc1n[nH]c(C)c1CCn1cc(-c2cnc(-n3ncc4cc(C#N)cnc43)cc2NC(C)C)nn1 [Example 102, 1-(5-(1-(2-(3,5-dimethyl-1H-pyrazol-4-yl)ethyl)-1H-1,2,3-triazol-4-yl)-4-(isopropylamino)pyridin-2-yl)-1H-pyrazolo[3,4-b]pyridine-5-carbonitrile]
14 | 10.1 | 1190 | 4 | CC(C)Nc1cc(-n2ncc3cc(C#N)cnc32)ncc1-c1cn(CC2CCC2)nn1 [Example 117, 1-(5-(1-(cyclobutylmethyl)-1H-1,2,3-triazol-4-yl)-4-(isopropylamino)pyridin-2-yl)-1H-pyrazolo[3,4-b]pyridine-5-carbonitrile]
15 | 5 | 430 | 2 | CC(C)Nc1cc(-n2ncc3cc(C#N)cnc32)ncc1-c1cn(CCc2cccnc2)nn1 [Example 119, 1-(4-(isopropylamino)-5-(1-(2-(pyridin-3-yl)ethyl)-1H-1,2,3-triazol-4-yl)pyridin-2-yl)-1H-pyrazolo[3,4-b]pyridine-5-carbonitrile]
16 | 7.4 | 200 | 1 | CC(C)Nc1cc(-n2ncc3cc(C#N)cnc32)ncc1-c1cn(CCc2ccncc2)nn1 [Example 120, 1-(4-(isopropylamino)-5-(1-(2-(pyridin-4-yl)ethyl)-1H-1,2,3-triazol-4-yl)pyridin-2-yl)-1H-pyrazolo[3,4-b]pyridine-5-carbonitrile]
17 | 32.2 | 590 | 6 | CCOCCn1cc(-c2cnc(-n3ncc4cc(C#N)cnc43)cc2NC(C)C)nn1 [Example 122, 1-(5-(1-(2-ethoxyethyl)-1H-1,2,3-triazol-4-yl)-4-(isopropylamino)pyridin-2-yl)-1H-pyrazolo[3,4-b]pyridine-5-carbonitrile]
18 | 24.4 | 240 | 5 | CC(C)Nc1cc(-n2ncc3cc(C#N)cnc32)ncc1-c1cn(CC2CCO2)nn1 (stereo not drawn) [Example 123, 1-(4-(isopropylamino)-5-(1-(oxetan-2-ylmethyl)-1H-1,2,3-triazol-4-yl)pyridin-2-yl)-1H-pyrazolo[3,4-b]pyridine-5-carbonitrile]
19 | 2.9 | 290 | 2 | CC(C)Nc1cc(-n2ncc3cc(C#N)cnc32)ncc1-c1cn(CCCCO)nn1 [Example 124, 1-(5-(1-(4-hydroxybutyl)-1H-1,2,3-triazol-4-yl)-4-(isopropylamino)pyridin-2-yl)-1H-pyrazolo[3,4-b]pyridine-5-carbonitrile]
20 | 5 | 340 | 1 | CC(C)Nc1cc(-n2ncc3cc(C#N)cnc32)ncc1-c1cn(CCC(C)(C)O)nn1 [Example 128, 1-(5-(1-(3-hydroxy-3-methylbutyl)-1H-1,2,3-triazol-4-yl)-4-(isopropylamino)pyridin-2-yl)-1H-pyrazolo[3,4-b]pyridine-5-carbonitrile]
21 | < 1.5 | 360 | 3 | [2H]C([2H])([2H])C(=O)N1CC(n2cc(-c3cnc(-n4ncc5cc(C#N)cnc54)cc3NC(C)C)nn2)C1 [Example 140, 1-(5-(1-(1-trideuteroacetylazetidin-3-yl)-1H-1,2,3-triazol-4-yl)-4-(isopropylamino)pyridin-2-yl)-1H-pyrazolo[3,4-b]pyridine-5-carbonitrile]
22 | 9.1 | 450 | 2 | CC(C)Nc1cc(-n2ncc3cc(C#N)cnc32)ncc1-c1cn(C2CN(C(C)C)C2)nn1 [Example 150, 1-(4-(isopropylamino)-5-(1-(1-isopropylazetidin-3-yl)-1H-1,2,3-triazol-4-yl)pyridin-2-yl)-1H-pyrazolo[3,4-b]pyridine-5-carbonitrile]
23 | 15.8 | 750 | 4 | CC(C)Nc1cc(-n2cnc3cc(C#N)cnc32)ncc1-c1cn(C2CN(C)C2)nn1 [Example 152, 3-(4-(isopropylamino)-5-(1-(1-methylazetidin-3-yl)-1H-1,2,3-triazol-4-yl)pyridin-2-yl)-3H-imidazo[4,5-b]pyridine-6-carbonitrile]
24 | < 1.5 | 150 | 4 | CC(=O)N1CC(n2cc(-c3cnc(-n4ncc5cc(C#N)cnc54)cc3NC(C)C)nn2)C1 [Example 154, 1-(5-(1-(1-acetylazetidin-3-yl)-1H-1,2,3-triazol-4-yl)-4-(isopropylamino)pyridin-2-yl)-1H-pyrazolo[3,4-b]pyridine-5-carbonitrile]
25 | < 1.5 | 280 | 6 | CC(=O)N1CCC(n2cc(-c3cnc(-n4ncc5cc(C#N)cnc54)cc3NC(C)C)nn2)C1 (stereo not drawn) [Example 157, 1-(5-(1-(1-acetylpyrrolidin-3-yl)-1H-1,2,3-triazol-4-yl)-4-(isopropylamino)pyridin-2-yl)-1H-pyrazolo[3,4-b]pyridine-5-carbonitrile]

Source: patent US10294229B2, “Heteroaryl substituted aminopyridine compounds” (BRISTOL-MYERS SQUIBB COMPANY, priority 2015, dated 2019)
